In this test the test system is MCF7. The test is described as follows: Cytotoxic concentration against MCF-7 cells was determined. The format is functional, cell-based. As to conditions: Homo sapiens.

For orientation: IC50 means the concentration at which inhibition is half-maximal. Higher therefore signals weaker potency.

`O=C(/C=C/c1ccc(Br)cc1)c1ccccc1O` had an IC50 of 12.3 µM.

(Values after ChEMBL document CHEMBL1135340, “Efficient liquid-phase synthesis of 2'-hydroxychalcones” (Bioorg Med Chem Lett, 2002).)
